Data: PubChem BioAssay AID248 (DTP/NCI, 2004)
Several values for one entry are separate records, joined by “and”; a condition that tells them apart may be missing. Equal entries are not always repeated. Toxic doses and inconclusive results are not listed.

Test system: L1210 leukemia ip in BDF1 mice, survival T/C
Assay: NCI In Vivo Anticancer Drug Screen. Data for tumor model L1210 Leukemia (intraperitoneal) in B6D2F1 (BDF1) mice
Conditions: higher = longer survival
How it was run: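 Read-out is survival time, reported as the treated-group measurement over the vehicle-control measurement.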

Question: What does the source list for `NC(=S)N/N=C/c1ccc(O)cn1`?
Answer: T/C (endpoint: mean survival time, dose: 3.13 mg/kg/injection, schedule: Q03HX024 (ip), vehicle: Klucel (hydroxypropylcellulose) (HPC)): 120 % of control; T/C (endpoint: mean survival time, dose: 3.13 mg/kg/injection, schedule: Q03HX024 (ip), vehicle: other): 120 % of control; T/C (endpoint: mean survival time, dose: 3.13 mg/kg/injection, schedule: Q03HX024 (ip), vehicle: saline): 113 % of control; T/C (endpoint: mean survival time, dose: 6.25 mg/kg/injection, schedule: Q03HX024 (ip), vehicle: other): 106 % of control; T/C (endpoint: mean survival time, dose: 9.5 mg/kg/injection, schedule: Q01DX005 (iv), vehicle: other): 104 % of control; T/C (endpoint: mean survival time, dose: 11.0 mg/kg/injection, schedule: Q03HX032 (ip), vehicle: saline with Tween-80): 123 % of control; T/C (endpoint: mean survival time, dose: 12.5 mg/kg/injection, schedule: Q03HX024 (ip), vehicle: other): 106 % of control; T/C (endpoint: mean survival time, dose: 12.5 mg/kg/injection, schedule: Q03HX024 (ip), vehicle: saline): 159 % of control; T/C (endpoint: mean survival time, dose: 19.0 mg/kg/injection, schedule: Q01DX005 (iv), vehicle: other): 111 % of control; T/C (endpoint: mean survival time, dose: 25.0 mg/kg/injection, schedule: Q01DX015 (ip), vehicle: carboxymethylcellulose (CMC)): 158 % of control; T/C (endpoint: mean survival time, dose: 33.0 mg/kg/injection, schedule: Q## X008 (ip), vehicle: other): 124 % of control; T/C (endpoint: mean survival time, dose: 33.0 mg/kg/injection, schedule: Q## X016 (ip), vehicle: other): 122 % of control; T/C (endpoint: mean survival time, dose: 37.5 mg/kg/injection, schedule: Q01DX005 (ip), vehicle: other): 159 % of control; T/C (endpoint: mean survival time, dose: 40.0 mg/kg/injection, schedule: Q06HX016 (ip), vehicle: Klucel (hydroxypropylcellulose) (HPC)): 154 % of control; T/C (endpoint: mean survival time, dose: 44.0 mg/kg/injection, schedule: Q03HX032 (ip), vehicle: saline with Tween-80): 159 % of control; T/C (endpoint: mean survival time, dose: 50.0 mg/kg/injection, schedule: Q01DX001 (ip), vehicle: saline): 114 % of control; T/C (endpoint: mean survival time, dose: 50.0 mg/kg/injection, schedule: Q01DX009 (oral), vehicle: carboxymethylcellulose (CMC)): 120 % of control; T/C (endpoint: mean survival time, dose: 50.0 mg/kg/injection, schedule: Q03HX024 (ip), vehicle: other): 151 % of control; T/C (endpoint: mean survival time, dose: 50.0 mg/kg/injection, schedule: Q03HX024 (ip), vehicle: saline): 151 % of control; T/C (endpoint: mean survival time, dose: 62.0 mg/kg/injection, schedule: Q03HX032 (ip), vehicle: carboxymethylcellulose (CMC)): 118 % of control; T/C (endpoint: mean survival time, dose: 66.0 mg/kg/injection, schedule: Q03HX032 (ip), vehicle: saline with Tween-80): 102 % of control and 116 % of control; T/C (endpoint: mean survival time, dose: 75.0 mg/kg/injection, schedule: Q03HX008 (ip), vehicle: alkali diluted with saline): 156 % of control; T/C (endpoint: mean survival time, dose: 93.0 mg/kg/injection, schedule: Q03HX032 (ip), vehicle: carboxymethylcellulose (CMC)): 96 % of control; T/C (endpoint: mean survival time, dose: 100.0 mg/kg/injection, schedule: Q01DX001 (ip), vehicle: saline): 120 % of control; T/C (endpoint: mean survival time, dose: 100.0 mg/kg/injection, schedule: Q01DX001 (oral), vehicle: other): 106 % of control; T/C (endpoint: mean survival time, dose: 100.0 mg/kg/injection, schedule: Q01DX009 (oral), vehicle: other): 121 % of control; T/C (endpoint: mean survival time, dose: 100.0 mg/kg/injection, schedule: Q03HX024 (ip), vehicle: saline): 104 % of control; T/C (endpoint: mean survival time, dose: 100.0 mg/kg/injection, schedule: Q04DX003 (ip), vehicle: alkali diluted with saline): 111 % of control; T/C (endpoint: mean survival time, dose: 100.0 mg/kg/injection, schedule: Q## X002 (oral), vehicle: other): 98 % of control; T/C (endpoint: mean survival time, dose: 100.0 mg/kg/injection, schedule: Q## X003 (oral), vehicle: other): 108 % of control; T/C (endpoint: mean survival time, dose: 100.0 mg/kg/injection, schedule: Q## X008 (oral), vehicle: other): 101 % of control; T/C (endpoint: mean survival time, dose: 100.0 mg/kg/injection, schedule: Q## X016 (oral), vehicle: other): 97 % of control; T/C (endpoint: mean survival time, dose: 100.0 mg/kg/injection, schedule: Q## X024 (oral), vehicle: other): 101 % of control; T/C (endpoint: mean survival time, dose: 150.0 mg/kg/injection, schedule: Q01DX001 (ip), vehicle: alkali diluted with saline): 104 % of control; T/C (endpoint: mean survival time, dose: 150.0 mg/kg/injection, schedule: Q01DX001 (ip), vehicle: other): 118 % of control; T/C (endpoint: mean survival time, dose: 150.0 mg/kg/injection, schedule: Q03HX024 (ip), vehicle: saline): 152 % of control; T/C (endpoint: mean survival time, dose: 150.0 mg/kg/injection, schedule: Q08DX002 (ip), vehicle: alkali diluted with saline): 102 % of control; T/C (endpoint: mean survival time, dose: 150.0 mg/kg/injection, schedule: Q## X002 (ip), vehicle: other): 114 % of control; T/C (endpoint: mean survival time, dose: 150.0 mg/kg/injection, schedule: Q## X016 (ip), vehicle: other): 153 % of control; T/C (endpoint: mean survival time, dose: 200.0 mg/kg/injection, schedule: Q01DX001 (oral), vehicle: other): 103 % of control; T/C (endpoint: mean survival time, dose: 200.0 mg/kg/injection, schedule: Q01DX009 (ip), vehicle: saline): 119 % of control; T/C (endpoint: mean survival time, dose: 200.0 mg/kg/injection, schedule: Q01DX009 (oral), vehicle: carboxymethylcellulose (CMC)): 157 % of control; T/C (endpoint: mean survival time, dose: 200.0 mg/kg/injection, schedule: Q04DX003 (ip), vehicle: alkali diluted with saline): 112 % of control; T/C (endpoint: mean survival time, dose: 200.0 mg/kg/injection, schedule: Q## X002 (oral), vehicle: other): 104 % of control; T/C (endpoint: mean survival time, dose: 200.0 mg/kg/injection, schedule: Q## X003 (oral), vehicle: other): 112 % of control; T/C (endpoint: mean survival time, dose: 200.0 mg/kg/injection, schedule: Q## X008 (oral), vehicle: other): 111 % of control; T/C (endpoint: mean survival time, dose: 200.0 mg/kg/injection, schedule: Q## X016 (oral), vehicle: other): 106 % of control; T/C (endpoint: mean survival time, dose: 200.0 mg/kg/injection, schedule: Q## X024 (oral), vehicle: other): 102 % of control; T/C (endpoint: mean survival time, dose: 280.0 mg/kg/injection, schedule: Q01DX001 (ip), vehicle: saline with Tween-80): 118 % of control and 119 % of control; T/C (endpoint: mean survival time, dose: 300.0 mg/kg/injection, schedule: Q01DX001 (ip), vehicle: alkali diluted with saline): 108 % of control; T/C (endpoint: mean survival time, dose: 300.0 mg/kg/injection, schedule: Q01DX009 (ip), vehicle: saline with Tween-80): 107 % of control; T/C (endpoint: mean survival time, dose: 300.0 mg/kg/injection, schedule: Q08DX002 (ip), vehicle: alkali diluted with saline): 105 % of control; T/C (endpoint: mean survival time, dose: 400.0 mg/kg/injection, schedule: Q01DX001 (ip), vehicle: saline): 109 % of control; T/C (endpoint: mean survival time, dose: 400.0 mg/kg/injection, schedule: Q01DX001 (oral), vehicle: other): 105 % of control; T/C (endpoint: mean survival time, dose: 400.0 mg/kg/injection, schedule: Q01DX009 (oral), vehicle: carboxymethylcellulose (CMC)): 153 % of control; T/C (endpoint: mean survival time, dose: 400.0 mg/kg/injection, schedule: Q01DX009 (oral), vehicle: other): 156 % of control; T/C (endpoint: mean survival time, dose: 400.0 mg/kg/injection, schedule: Q01DX015 (ip), vehicle: carboxymethylcellulose (CMC)): 103 % of control; T/C (endpoint: mean survival time, dose: 400.0 mg/kg/injection, schedule: Q03HX024 (ip), vehicle: clinical formulation): 98 % of control; T/C (endpoint: mean survival time, dose: 400.0 mg/kg/injection, schedule: Q## X002 (oral), vehicle: other): 105 % of control; T/C (endpoint: mean survival time, dose: 400.0 mg/kg/injection, schedule: Q## X003 (ip), vehicle: other): 150 % of control; T/C (endpoint: mean survival time, dose: 400.0 mg/kg/injection, schedule: Q## X003 (oral), vehicle: other): 116 % of control; T/C (endpoint: mean survival time, dose: 400.0 mg/kg/injection, schedule: Q## X008 (oral), vehicle: other): 110 % of control; T/C (endpoint: mean survival time, dose: 400.0 mg/kg/injection, schedule: Q## X016 (oral), vehicle: other): 120 % of control; T/C (endpoint: mean survival time, dose: 400.0 mg/kg/injection, schedule: Q## X024 (oral), vehicle: other): 122 % of control; T/C (endpoint: mean survival time, dose: 427.0 mg/kg/injection, schedule: Q01DX001 (ip), vehicle: saline with Tween-80): 121 % of control and 122 % of control; T/C (endpoint: mean survival time, dose: 600.0 mg/kg/injection, schedule: Q01DX001 (ip), vehicle: alkali diluted with saline): 108 % of control; T/C (endpoint: mean survival time, dose: 600.0 mg/kg/injection, schedule: Q01DX005 (ip), vehicle: other): 97 % of control; T/C (endpoint: mean survival time, dose: 600.0 mg/kg/injection, schedule: Q01DX009 (ip), vehicle: other): 108 % of control; T/C (endpoint: mean survival time, dose: 600.0 mg/kg/injection, schedule: Q08DX002 (ip), vehicle: alkali diluted with saline): 105 % of control; T/C (endpoint: mean survival time, dose: 800.0 mg/kg/injection, schedule: Q01DX001 (oral), vehicle: other): 106 % of control; T/C (endpoint: mean survival time, dose: 800.0 mg/kg/injection, schedule: Q## X002 (oral), vehicle: other): 115 % of control; T/C (endpoint: mean survival time, dose: 800.0 mg/kg/injection, schedule: Q## X003 (oral), vehicle: other): 107 % of control; T/C (endpoint: mean survival time, dose: 800.0 mg/kg/injection, schedule: Q## X008 (oral), vehicle: other): 123 % of control; T/C (endpoint: mean survival time, dose: 800.0 mg/kg/injection, schedule: Q## X024 (oral), vehicle: other): 155 % of control; T/C (endpoint: mean survival time, dose: 833.0 mg/kg/injection, schedule: Q01DX001 (ip), vehicle: saline): 153 % of control; T/C (endpoint: mean survival time, dose: 1200.0 mg/kg/injection, schedule: Q01DX001 (ip), vehicle: other): 158 % of control; T/C (endpoint: mean survival time, dose: 1388.0 mg/kg/injection, schedule: Q01DX001 (ip), vehicle: saline): 157 % of control; T/C (endpoint: mean survival time, dose: 1600.0 mg/kg/injection, schedule: Q## X024 (ip), vehicle: other): 104 % of control; T/C (endpoint: mean survival time, dose: 2400.0 mg/kg/injection, schedule: Q01DX001 (ip), vehicle: saline): 150 % of control and 152 % of control; T/C (endpoint: mean survival time, dose: 2400.0 mg/kg/injection, schedule: Q## X016 (ip), vehicle: other): 100 % of control; T/C (endpoint: median survival time, dose: 37.5 mg/kg/injection, schedule: Q01DX009 (ip), vehicle: water): 155 % of control and 157 % of control; T/C (endpoint: median survival time, dose: 50.0 mg/kg/injection, schedule: Q01DX009 (ip), vehicle: other): 150 % of control; T/C (endpoint: median survival time, dose: 100.0 mg/kg/injection, schedule: Q04DX003 (ip), vehicle: other): 105 % of control; T/C (endpoint: median survival time, dose: 100.0 mg/kg/injection, schedule: Q04DX003 (sc), vehicle: other): 100 % of control; T/C (endpoint: median survival time, dose: 150.0 mg/kg/injection, schedule: Q01DX009 (ip), vehicle: water): 122 % of control and 124 % of control; T/C (endpoint: median survival time, dose: 200.0 mg/kg/injection, schedule: Q04DX003 (ip), vehicle: other): 120 % of control; T/C (endpoint: median survival time, dose: 300.0 mg/kg/injection, schedule: Q01DX009 (ip), vehicle: water): 105 % of control and 106 % of control; T/C (endpoint: median survival time, dose: 400.0 mg/kg/injection, schedule: Q04DX003 (ip), vehicle: other): 100 % of control; T/C (endpoint: median survival time, dose: 400.0 mg/kg/injection, schedule: Q04DX003 (sc), vehicle: other): 120 % of control; T/C (endpoint: median survival time, dose: 500.0 mg/kg/injection, schedule: Q01DX001 (ip), vehicle: saline): 150 % of control; T/C (endpoint: median survival time, dose: 1388.0 mg/kg/injection, schedule: Q01DX001 (ip), vehicle: saline): 157 % of control
